From ChEMBL document CHEMBL3853313, “Iminoguanidines as Allosteric Inhibitors of the Iron-Regulated Heme Oxygenase (HemO) of Pseudomonas aeruginosa” (J Med Chem, 2016)
pEC50, pKd: −log10 of the molar value. Active and inactive are the calls of the source. The calls are words filed in the database; no cut-off is given here.

Experiments:
Pseudomonas aeruginosa [1] = assay: Antibacterial activity against Pseudomonas aeruginosa PAO1 after 12 hrs; format: functional; settings: PAO1, 12 h
[2] = Inhibition of Pseudomonas aeruginosa HemO mutant expressed in Escherichia coli BL21(DE3) assessed as decrease in biliverdin-9alpha-dependent IFP1.4 fluorescence after 16 hrs by spectrophotometric method
[3] = target: T1, Heme oxygenase (Pseudomonas aeruginosa) (UniProt O69002); assay: Binding affinity to Pseudomonas aeruginosa HemO by STD NMR method
T1 sequence (whole entry): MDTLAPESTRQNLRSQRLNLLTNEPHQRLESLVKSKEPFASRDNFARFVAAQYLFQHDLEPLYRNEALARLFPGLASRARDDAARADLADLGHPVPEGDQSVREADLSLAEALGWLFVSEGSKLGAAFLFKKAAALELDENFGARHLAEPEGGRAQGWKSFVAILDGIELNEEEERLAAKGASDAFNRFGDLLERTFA

Pseudomonas aeruginosa [4] = assay: Bactericidal activity against Pseudomonas aeruginosa PAO1 after 12 hrs; format: functional; settings: PAO1, 12 h
Pseudomonas aeruginosa [5] = assay: Antibacterial activity against Pseudomonas aeruginosa JSRI-1 clinical isolate after 12 hrs; format: functional; settings: JSRI-1, 12 h
Pseudomonas aeruginosa [6] = assay: Bactericidal activity against Pseudomonas aeruginosa JSRI-2 clinical isolate after 12 hrs; format: functional; settings: JSRI-2, 12 h
Pseudomonas aeruginosa [7] = assay: Bactericidal activity against Pseudomonas aeruginosa JSRI-1 clinical isolate after 12 hrs; format: functional; settings: JSRI-1, 12 h
Pseudomonas aeruginosa [8] = assay: Antibacterial activity against Pseudomonas aeruginosa JSRI-2 clinical isolate after 12 hrs; format: functional; settings: JSRI-2, 12 h
Heme oxygenase = target: T2, Heme oxygenase (Pseudomonas aeruginosa, UniProt O69002); assay: Binding affinity to Pseudomonas aeruginosa HemO by intrinsic fluorescence quenching method
T2 sequence (O69002 whole entry): T1 sequence (whole entry)

Escherichia coli = assay: Toxicity in Escherichia coli BL21(DE3) expressing Pseudomonas aeruginosa HemO mutant after 16 hrs by phase contrast microscopy
[9] = target: T1, Heme oxygenase (Pseudomonas aeruginosa); assay: Binding affinity to Pseudomonas aeruginosa holo-HemO (53 to 62 residues) at 30 mins by HXMS method

Row | Compound | MIC50 (Pseudomonas aeruginosa [1]) [µg/mL] | pEC50 [2] | Activity [3] | MBC (Pseudomonas aeruginosa [4]) [µg/mL] | MIC50 (Pseudomonas aeruginosa [5]) [µg/mL] | MBC (Pseudomonas aeruginosa [6]) [µg/mL] | MBC (Pseudomonas aeruginosa [7]) [µg/mL] | MIC50 (Pseudomonas aeruginosa [8]) [µg/mL] | pKd (Heme oxygenase) | Activity (Escherichia coli) | Activity [9]
1 | Cl.N=C(N)N/N=C/c1ccccc1O | 123 | 3.99 | Active | > 1000 | 58.5 | 250 | > 1000 | 79.1 | 5.04 | – | –
2 | CN(C)c1ccc(/C=N/NC(=N)N)cc1.Cl | 121 | 3.91 | – | 1000 | 32.5 | 250 | 1000 | 15.5 | 5.06 | Non-Toxic | –
3 | Cl.N=C(N)N/N=C/c1ccccc1F | 131 | < 3.70 | – | 1000 | 28.6 | 250 | > 1000 | 72.9 | 4.96 | – | –
4 | CC(C)c1ccc(/C=N/NC(=N)N)cc1.Cl | 52.3 | 4.95 | – | 125 | 20.6 | 125 | 125 | 81 | 5.24 | – | –
5 | Cl.N=C(N)N/N=C/c1ccc2ccccc2c1 | 48.4 | 4.37 | – | 250 | 31.7 | 125 | 250 | 75.6 | – | – | –
6 | Cl.NC(N)=N/N=C/c1cccc(O)c1 | 750 | < 3.70 | – | – | 391 | – | – | 617 | 4.68 | – | –
7 | Cl.N=C(N)N/N=C/c1ccc([N+](=O)[O-])cc1 | 72.8 | 4.19 | – | 1000 | 61.4 | 125 | 1000 | 47.2 | 5.21 | – | –
8 | Cl.NC(N)=N/N=C/c1cccc(Br)c1O | 80.5 | 4.22 | – | 500 | 145 | 250 | 1000 | 45.6 | 5.10 | – | –
9 | Cl.N=C(N)N/N=C/c1ccc(Cl)cc1 | 49 | 3.91 | – | 500 | 10.7 | 62.5 | 250 | 41.6 | 5.15 | – | –
10 | Cl.NC(N)=N/N=C/c1ccccc1Br | 50.1 | 4.45 | Active | 500 | 62.9 | 250 | 500 | 33.4 | – | – | –
11 | N=C(N)N/N=C/c1cccc(OCc2ccccc2)c1 | – | – | Active | – | – | – | – | – | – | – | –
12 | COc1ccc(/C=N/NC(=N)N)cc1.Cl | 113 | 4.11 | – | 500 | 30.5 | 500 | 1000 | 38 | 5.11 | – | –
13 | Cl.NC(N)=N/N=C/c1ccc(O)cc1 | 408 | < 3.70 | – | > 1000 | 443 | > 1000 | > 1000 | 121 | 5.32 | – | –
14 | N=C(N)N/N=C/c1ccccc1Br | – | – | – | – | – | – | – | – | 5.17 | – | –
15 | Cl.NC(N)=N/N=C/c1cccc(OCc2ccccc2)c1 | 23.2 | 4.46 | – | 125 | 25.5 | 62.5 | 125 | 33.9 | – | – | –
16 | Cl.N=C(N)N/N=C/c1cccc(Cl)c1 | 52.4 | 4.71 | – | 250 | 19.2 | 250 | 500 | 33.5 | 5.08 | – | –
17 | Cl.NC(N)=N/N=C/c1cc(O)cc(O)c1 | 1140 | < 3.70 | – | – | 338 | – | – | 564 | 5.10 | – | –
18 | Cl.N=C(N)N/N=C/c1cccc2ccccc12 | 32.1 | 4.28 | – | 250 | 30.4 | 125 | 250 | 36.1 | 4.92 | – | –
19 | Cl.N=C(N)N/N=C/c1ccc(F)cc1 | 162 | 4.11 | – | 1000 | 87.4 | 500 | 1000 | 69.4 | 4.85 | – | –
20 | Cl.N=C(N)N/N=C/c1ccc(Br)cc1 | 52.5 | 4.45 | – | 250 | 19.7 | 62.5 | 250 | 13.4 | 4.82 | – | –
21 | Cl.NC(N)=N/N=C/c1ccc(Cl)c(Cl)c1 | 32.3 | 4.69 | – | 125 | 24.1 | 125 | 125 | 16.4 | 5.08 | – | –
22 | Cl.NC(N)=N/N=C/c1ccc(-c2ccccc2)cc1 | 59.1 | 4.66 | – | 125 | 34.6 | 62.5 | 125 | 38 | 5.17 | – | Active
23 | COc1ccccc1/C=N/NC(=N)N.Cl | 99.5 | 4.14 | Active | 1000 | 38.4 | 500 | > 1000 | 125 | – | – | –
24 | Cl.NC(N)=N/N=C/c1cccc(Br)c1 | 51.3 | 4.95 | – | 250 | 23 | 125 | 500 | 19.4 | 4.92 | – | –
25 | COc1cccc(/C=N/N=C(N)N)c1.Cl | 134 | – | – | > 1000 | 48.6 | 500 | 1000 | 93.4 | – | – | –
26 | Cl.NC(N)=N/N=C/c1cccc(F)c1 | 66.6 | 4.35 | – | 1000 | 70 | 250 | 1000 | 68.2 | 4.92 | – | –
